ChEMBL document CHEMBL5223186, “Agrochemical Lessons for Infectious Disease Research: New Resistance Breaking Antifungal Hits against Candida auris” (ACS Med Chem Lett, 2023)
≈ marks a conversion by molar mass, not a printed value.

Key:
[1] = Selectivity index, ratio of IC50 for cytotoxicity against human HepG2 cells to IC50 for antifungal activity against Candida auris CDC0385; assay type: toxicity, cell-based; settings: read-out: Ratio IC50
[Candida] auris [2] = Antifungal activity against Candida auris CDC0385 assessed as growth inhibition; assay type: functional, organism-based; settings: Candidozyma auris
[Candida] auris [3] = Antifungal activity against Candida auris CDC0381 assessed as lowest compound concentration required to inhibit 50 % growth; assay type: functional, Candidozyma auris
[Candida] auris [4] = Antifungal activity against Candida auris CDC0381 assessed as lowest compound concentration required to inhibit 90 % growth; assay type: functional, Candidozyma auris
[Candida] auris [5] = Antifungal activity against Candida auris ATCC 6258 assessed as lowest compound concentration required to inhibit 50 % growth; assay type: functional, Candidozyma auris
[Candida] auris [6] = Antifungal activity against Candida auris CDC0385 assessed as lowest compound concentration required to inhibit 50 % growth; assay type: functional, Candidozyma auris
[Candida] auris [7] = Antifungal activity against Candida auris CDC0381 assessed as growth inhibition; assay type: functional, organism-based; settings: Candidozyma auris
[8] = Cytotoxicity against human HepG2 cells assessed as growth inhibition by XTT assay; assay type: toxicity, cell-based
[Candida] auris [9] = Antifungal activity against Candida auris ATCC 6258 assessed as lowest compound concentration required to inhibit 90 % growth; assay type: functional, Candidozyma auris
[Candida] auris [10] = Antifungal activity against Candida auris CDC0385 assessed as lowest compound concentration required to inhibit 90 % growth; assay type: functional, Candidozyma auris
[Candida] auris [11] = Antifungal activity against Candida auris ATCC 6258 assessed as growth inhibition; assay type: functional, organism-based; settings: Candidozyma auris

Compound | selectivity ratio [1] | IC50 ([Candida] auris [2]) | IC90 ([Candida] auris [2]) | INH ([Candida] auris [3]) | INH ([Candida] auris [4]) | INH ([Candida] auris [5]) | INH ([Candida] auris [6]) | IC50 ([Candida] auris [7]) | IC90 ([Candida] auris [7]) | IC50 [8] | INH ([Candida] auris [9]) | INH ([Candida] auris [10]) | IC50 ([Candida] auris [11]) | IC90 ([Candida] auris [11])
Fc1ccc2[nH]cc(-c3ccsc3Br)c2c1 | > 3.41 | 29.3 µg/mL (≈ 98.9 µM) | > 64 µg/mL | 16 µg/mL | 16 µg/mL | 64 µg/mL | 32 µg/mL | 9.85 µg/mL (≈ 33.3 µM) | 15.7 µg/mL (≈ 53 µM) | > 100 µM | >64 µg/mL | >64 µg/mL | 32.2 µg/mL (≈ 109 µM) | > 64 µg/mL
NC1CCCc2ccc(C3=NSC(c4cc(Cl)c(F)c(Cl)c4)(C(F)(F)F)C3)cc21 (stereo not given) | 6.29 | 2.09 µg/mL (≈ 4.51 µM) | 2.3 µg/mL (≈ 4.96 µM) | 2 µg/mL | 2 µg/mL | 4 µg/mL | 4 µg/mL | 1.43 µg/mL (≈ 3.09 µM) | 1.71 µg/mL (≈ 3.69 µM) | 13.2 µM | 4 µg/mL | 4 µg/mL | 2.11 µg/mL (≈ 4.55 µM) | 2.62 µg/mL (≈ 5.65 µM)
Clc1cc2c(c3ncccc13)OCN(CCc1ccccc1)C2 | 10.6 | 2.14 µg/mL (≈ 6.59 µM) | 3.88 µg/mL (≈ 11.9 µM) | 4 µg/mL | 4 µg/mL | 2 µg/mL | 4 µg/mL | 2 µg/mL (≈ 6.16 µM) | 2.13 µg/mL (≈ 6.56 µM) | 22.7 µM | 4 µg/mL | 4 µg/mL | 1.98 µg/mL (≈ 6.1 µM) | 2.2 µg/mL (≈ 6.77 µM)
Cc1cc(Nc2ccccc2C)n(-c2nc(=O)cc(C)[nH]2)n1 | > 69 | 1.45 µg/mL (≈ 4.91 µM) | 6.05 µg/mL (≈ 20.5 µM) | 1 µg/mL | 4 µg/mL | 2 µg/mL | 2 µg/mL | 0.85 µg/mL (≈ 2.88 µM) | 1.93 µg/mL (≈ 6.53 µM) | > 100 µM | 4 µg/mL | 8 µg/mL | 1.42 µg/mL (≈ 4.81 µM) | 2.38 µg/mL (≈ 8.06 µM)
CCCCCn1nc(-c2ccc(Cl)cc2)cnc1=O | 1.5 | 1.8 µg/mL (≈ 6.48 µM) | 3.64 µg/mL (≈ 13.1 µM) | 1 µg/mL | 4 µg/mL | 1 µg/mL | 2 µg/mL | 0.72 µg/mL (≈ 2.59 µM) | 1.59 µg/mL (≈ 5.72 µM) | 2.07 µM | 2 µg/mL | 4 µg/mL | 0.76 µg/mL (≈ 2.74 µM) | 1.05 µg/mL (≈ 3.78 µM)
COCc1ncnc(NC(C)CC#Cc2ccc(Oc3ccc(C(F)(F)F)cn3)cc2)c1OC (stereo not given) | > 222 | 0.45 µg/mL (≈ 0.952 µM) | 4.61 µg/mL (≈ 9.76 µM) | <0.125 µg/mL | 1 µg/mL | >64 µg/mL | 0.5 µg/mL | – | – | > 100 µM | >64 µg/mL | 8 µg/mL | – | –
C[C@@H]1[C@H](O)[C@@H](C)/C=C/C=C/C=C/C=C/C=C/C=C/C=C/[C@H](O[C@@H]2O[C@H](C)[C@@H](O)[C@H](N)[C@@H]2O)C[C@@H]2O[C@](O)(C[C@@H](O)C[C@@H](O)[C@H](O)CC[C@@H](O)C[C@@H](O)CC(=O)O[C@H]1C)C[C@H](O)[C@H]2C(=O)O [AMPHOTERICIN B] | – | 0.54 µg/mL (≈ 0.584 µM) | 0.83 µg/mL (≈ 0.898 µM) | 0.25 µg/mL | 0.5 µg/mL | 0.5 µg/mL | 1 µg/mL | 0.2 µg/mL (≈ 0.216 µM) | 0.39 µg/mL (≈ 0.422 µM) | – | 1 µg/mL | 1 µg/mL | 0.49 µg/mL (≈ 0.53 µM) | 0.54 µg/mL (≈ 0.584 µM)
C1CCC(C(CC2CCCCN2)C2CCCCC2)CC1 (stereo not given) [PERHEXILINE] | – | – | – | – | – | – | – | – | – | 11.3 µM | – | – | – | –
C[C@@H](c1ncncc1F)[C@](O)(Cn1cncn1)c1ccc(F)cc1F [VORICONAZOLE] | – | 2.94 µg/mL (≈ 8.42 µM) | > 4 µg/mL | 0.016 µg/mL | 4 µg/mL | 0.25 µg/mL | 4 µg/mL | 0.01 µg/mL (≈ 0.0286 µM) | 0.55 µg/mL (≈ 1.57 µM) | – | 1 µg/mL | >4 µg/mL | 0.2 µg/mL (≈ 0.573 µM) | 0.76 µg/mL (≈ 2.18 µM)
